Test results reported in the supplement of paper PMC10307832.

Legend:
Assay in all cases: relative viability (nuclei count vs DMSO), 5 days (fraction); higher = more cells survive
Apatinib + Lapatinib = compound: N#CC1(c2ccc(NC(=O)c3cccnc3NCc3ccncc3)cc2)CCCC1 [Apatinib] + CS(=O)(=O)CCNCc1ccc(-c2ccc3ncnc(Nc4ccc(OCc5cccc(F)c5)c(Cl)c4)c3c2)o1 [Lapatinib] (partner 2 µM)
Summary of the method: (§1)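 A single step with final 0.05% Triton X-100, 1% formaldehyde and 1 ug/ml Hoechst fixed the cells and stained nuclei 5 days after treatment. Lung cancer cell lines in 1536-well plates had been treated by pin tool the day after seeding with one drug alone or a fixed anchor-drug dose plus five library-drug doses (not always all listed) in √10 steps, and nuclei were counted on 4× images. Relative viability is the ratio of nuclei in treated wells to nuclei in vehicle wells, taken as the median of duplicate plates.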

Metformin + Foretinib = compound: CN(C)C(=N)NC(=N)N [Metformin] + COc1cc2c(Oc3ccc(NC(=O)C4(C(=O)Nc5ccc(F)cc5)CC4)cc3F)ccnc2cc1OCCCN1CCOCC1 [Foretinib] (partner 0.25 µM)
Summary of the method: as §1

Apatinib + OSI-027 = compound: N#CC1(c2ccc(NC(=O)c3cccnc3NCc3ccncc3)cc2)CCCC1 [Apatinib] + COc1cccc2cc(-c3nc([C@H]4CC[C@H](C(=O)O)CC4)n4ncnc(N)c34)[nH]c12 [OSI-027] (partner 0.5 µM)
Summary of the method: as §1

Apatinib + Pemetrexed = compound: N#CC1(c2ccc(NC(=O)c3cccnc3NCc3ccncc3)cc2)CCCC1 [Apatinib] + Nc1nc2[nH]cc(CCc3ccc(C(=O)N[C@@H](CCC(=O)O)C(=O)O)cc3)c2c(=O)[nH]1 [Pemetrexed] (partner 0.2 µM)
Summary of the method: as §1

| Cell Line | relative viability (Apatinib + Lapatinib; first compound 0.08 µM) | relative viability (Apatinib + Lapatinib; first compound 0.253 µM) | relative viability (Apatinib + Lapatinib; first compound 0.8 µM) | relative viability (Apatinib + Lapatinib; first compound 2.53 µM) | relative viability (Apatinib + Lapatinib; first compound 8 µM) | relative viability (Metformin + Foretinib; first compound 10 µM) | relative viability (Metformin + Foretinib; first compound 31.62 µM) | relative viability (Metformin + Foretinib; first compound 100 µM) | relative viability (Metformin + Foretinib; first compound 316.23 µM) | relative viability (Metformin + Foretinib; first compound 1000 µM) | relative viability (Apatinib + OSI-027; first compound 0.08 µM) | relative viability (Apatinib + OSI-027; first compound 0.253 µM) | relative viability (Apatinib + OSI-027; first compound 0.8 µM) | relative viability (Apatinib + OSI-027; first compound 2.53 µM) | relative viability (Apatinib + OSI-027; first compound 8 µM) | relative viability (Apatinib + Pemetrexed; first compound 0.08 µM) | relative viability (Apatinib + Pemetrexed; first compound 0.253 µM) | relative viability (Apatinib + Pemetrexed; first compound 0.8 µM) | relative viability (Apatinib + Pemetrexed; first compound 2.53 µM) | relative viability (Apatinib + Pemetrexed; first compound 8 µM) |
| --- | --- | --- | --- | --- | --- | --- | --- | --- | --- | --- | --- | --- | --- | --- | --- | --- | --- | --- | --- | --- |
| NCI-H2347 | 0.926 | 0.992 | 1.02 | 0.964 | 0.957 | 0.844 | 0.578 | 0.784 | 0.885 | 0.459 | 0.478 | 0.354 | 0.48 | 0.361 | 0.282 | 0.477 | 0.404 | 0.449 | 0.409 | 0.409 |
| LC-2-ad | 0.925 | 0.998 | 0.947 | 0.9 | 0.71 | – | 0.788 | 0.923 | 0.692 | 0.624 | 0.752 | 0.761 | 0.828 | 0.813 | 0.68 | 0.248 | 0.299 | 0.259 | 0.267 | 0.233 |
| NCI-H1793 | 0.553 | 0.616 | 0.736 | 0.544 | 0.604 | 0.78 | – | 1.01 | 0.743 | 1.18 | 0.282 | 0.25 | 0.268 | 0.222 | 0.175 | 1.1 | 0.932 | 0.871 | 0.726 | 0.633 |
| NCI-H661 | 0.598 | 0.59 | 0.504 | 0.477 | 0.391 | 0.809 | 0.877 | 0.879 | 0.834 | 0.916 | 0.678 | 0.603 | 0.693 | 0.705 | 0.603 | 0.933 | 0.853 | 0.911 | 0.917 | 0.892 |
| NCI-H1666 | 0.631 | 0.726 | 0.736 | 0.759 | 0.682 | 1.03 | 1.03 | 1.08 | 1.03 | 1.09 | 0.883 | 0.826 | 0.797 | 0.73 | 0.755 | 0.874 | 0.858 | 0.842 | 0.802 | 0.672 |
| SK-LU-1 | 0.939 | 1.16 | 1.03 | 0.715 | 0.709 | 0.807 | 0.77 | 0.769 | 0.69 | 0.79 | 0.326 | 0.395 | 0.298 | 0.303 | 0.246 | 1.09 | 0.995 | 0.918 | 0.544 | 0.32 |
| HOP-62 | 0.994 | – | 0.945 | 0.955 | 0.929 | 0.882 | 1.08 | 1.08 | 0.985 | 1 | 0.917 | 0.874 | 0.799 | 0.714 | 0.605 | 0.333 | 0.31 | 0.289 | 0.244 | 0.16 |
| CAL-12T | 0.736 | 0.608 | 0.778 | 0.575 | 0.589 | 1.25 | 1.32 | 1.04 | 1.04 | 0.76 | 0.652 | 0.589 | 0.52 | 0.366 | 0.272 | 1.38 | 1.25 | 1.1 | 0.897 | 0.917 |
| BEN | 0.604 | 0.67 | 0.764 | 0.578 | 0.591 | 1.08 | 1.25 | 1.04 | 0.799 | 1.33 | 0.283 | 0.277 | 0.3 | 0.299 | 0.317 | 0.64 | 0.563 | 0.71 | 0.696 | 0.534 |
| HCC-366 | 1.07 | 1.14 | 0.98 | 0.979 | 1.02 | 1.09 | 0.928 | 0.881 | 0.955 | 0.943 | 1.06 | 0.88 | 0.815 | 0.744 | 0.494 | 0.192 | 0.159 | 0.129 | 0.121 | 0.0888 |
| EMC-BAC-2 | 0.954 | 0.886 | 0.878 | 0.877 | 0.807 | 1.03 | 1.1 | 1.09 | 0.976 | 1.09 | 0.413 | 0.389 | 0.357 | 0.338 | 0.291 | 0.452 | 0.465 | 0.422 | 0.406 | 0.401 |
| COR-L 105 | 0.358 | 0.342 | 0.354 | 0.336 | 0.33 | 1.23 | 1.38 | 1.23 | 1.14 | 0.791 | 0.775 | 0.806 | 0.619 | 0.582 | 0.491 | 1.27 | 1.21 | 1.04 | 0.895 | 1.05 |
| A-427 | 1.06 | 1.1 | 1.06 | 0.984 | 0.982 | 1.12 | 1.2 | 0.954 | 0.981 | 1.23 | 0.52 | 0.465 | 0.479 | 0.476 | 0.404 | 0.993 | 0.903 | 0.974 | 0.896 | 0.932 |
| NCI-H520 | 0.981 | 1.12 | 0.856 | 0.767 | 0.659 | 0.765 | 0.74 | 0.783 | 0.703 | 0.953 | 0.262 | 0.229 | 0.219 | 0.25 | 0.224 | 0.668 | 0.678 | 0.736 | 0.552 | 0.322 |
| NCI-H3122 | 1.03 | 1.02 | 1.01 | 0.989 | 1.01 | 0.946 | 0.951 | 0.944 | 0.806 | 0.919 | 0.952 | 0.64 | 0.969 | 0.955 | 0.845 | 0.212 | 0.192 | 0.199 | 0.202 | 0.188 |
| UMC-11 | 1.15 | 0.917 | 0.83 | 0.972 | 0.901 | 1.14 | 1.09 | 1.05 | 1.1 | 1.07 | 0.574 | 0.437 | 0.479 | 0.464 | 0.312 | 0.783 | 0.771 | 0.716 | 0.663 | 0.433 |
